Results: PubChem BioAssay AID2060900 (Molecular Pharmacology Branch, DTP, NCI, 2025)

Test system: 521955-158-R2-J5-PDC complex spheroids, viability
Assay: Anticancer human tumor 521955-158-R2-J5-PDC patient-derived pancreatic carcinoma cell line growth inhibition [RAS]
Details: for IC50: curve of first compound; for viability, T/C: stronger effect = lower value; active = viability on the fitted dose curve at most 10% of control; inactive = the rest
Method in brief: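 Agents were tested in combination matrices in half-log decrements from a top concentration at or near clinical Cmax (10 microM if undetermined). Targets were multi-cell spheroids of tumour lines plus HUVEC and MSC stromal cells.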
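Note: compound exposure lasted seven days before the viability read.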
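Throughout, for viability, T/C: spheroids also contain HUVEC endothelial cells and mesenchymal stem cells as stroma.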

CCc1c2c(nc3ccc(O)cc13)-c1cc3c(c(=O)n1C2)COC(=O)[C@]3(O)CC + CCn1c(-c2cc(N3CCN(C)CC3)cnc2C(C)OC)c2c3cc(ccc31)-c1csc(n1)CC(NC(=O)C1CC1C)C(=O)N1CCCC(N1)C(=O)OCC(C)(C)C2
inactive: viability, T/C (second compound 0.000949 µM, first compound 0.000949 µM) 30.3% | viability, T/C (second compound 0.000949 µM, first compound 0.003 µM) 23.1% | viability, T/C (second compound 0.000949 µM, first compound 0.00949 µM) 20.6% | viability, T/C (second compound 0.000949 µM, first compound 0.03 µM) 6.46% | viability, T/C (second compound 0.003 µM, first compound 0.000949 µM) 30.4% | viability, T/C (second compound 0.003 µM, first compound 0.003 µM) 26.8% | viability, T/C (second compound 0.003 µM, first compound 0.00949 µM) 19.9% | viability, T/C (second compound 0.003 µM, first compound 0.03 µM) 10.5% | viability, T/C (second compound 0.00949 µM, first compound 0.000949 µM) 26.2% | viability, T/C (second compound 0.00949 µM, first compound 0.003 µM) 26% | viability, T/C (second compound 0.00949 µM, first compound 0.00949 µM) 19.6% | viability, T/C (second compound 0.00949 µM, first compound 0.03 µM) 9.8% | viability, T/C (second compound 0.03 µM, first compound 0.000949 µM) 19.4% | viability, T/C (second compound 0.03 µM, first compound 0.003 µM) 21.2% | viability, T/C (second compound 0.03 µM, first compound 0.00949 µM) 13.2% | viability, T/C (second compound 0.03 µM, first compound 0.03 µM) 8.77% | viability, T/C (second compound 0.0949 µM, first compound 0.000949 µM) 11.3% | viability, T/C (second compound 0.0949 µM, first compound 0.003 µM) 14.1% | viability, T/C (second compound 0.3 µM, first compound 0.000949 µM) 8.86%
active: viability, T/C (second compound 0.000949 µM, first compound 0.0949 µM) 5.57% | viability, T/C (second compound 0.000949 µM, first compound 0.3 µM) 4.03% | viability, T/C (second compound 0.003 µM, first compound 0.0949 µM) 8.02% | viability, T/C (second compound 0.003 µM, first compound 0.3 µM) 5.19% | viability, T/C (second compound 0.00949 µM, first compound 0.0949 µM) 10.9% | viability, T/C (second compound 0.00949 µM, first compound 0.3 µM) 5.95% | viability, T/C (second compound 0.03 µM, first compound 0.0949 µM) 10.2% | viability, T/C (second compound 0.03 µM, first compound 0.3 µM) 5.37% | viability, T/C (second compound 0.0949 µM, first compound 0.00949 µM) 8.2% | viability, T/C (second compound 0.0949 µM, first compound 0.03 µM) 6.36% | viability, T/C (second compound 0.0949 µM, first compound 0.0949 µM) 5.92% | viability, T/C (second compound 0.0949 µM, first compound 0.3 µM) 2.8% | viability, T/C (second compound 0.3 µM, first compound 0.003 µM) 10.8% | viability, T/C (second compound 0.3 µM, first compound 0.00949 µM) 8.12% | viability, T/C (second compound 0.3 µM, first compound 0.03 µM) 5.86% | viability, T/C (second compound 0.3 µM, first compound 0.0949 µM) 6.11% | viability, T/C (second compound 0.3 µM, first compound 0.3 µM) 2.57%
< 0.949 nM: IC50 (second compound 0.000949 µM) | IC50 (second compound 0.003 µM) | IC50 (second compound 0.00949 µM) | IC50 (second compound 0.03 µM) | IC50 (second compound 0.0949 µM) | IC50 (second compound 0.3 µM)

CCC(CC)c1cc(NC2CCC(N)C2)n2nccc2n1 (stereo unspecified) + C#Cc1c(F)ccc2cc(O)cc(-c3ncc4c(N5CC6CCC(C5)N6)nc(OCC56CCCN5CC(F)C6)nc4c3F)c12
1160 nM: IC50 (second compound 0.1 µM)
737 nM: IC50 (second compound 1 µM)
inactive: viability, T/C (second compound 0.0316 µM, first compound 0.0316 µM) 62.2% | viability, T/C (second compound 0.0316 µM, first compound 0.1 µM) 56% | viability, T/C (second compound 0.0316 µM, first compound 0.316 µM) 68.2% | viability, T/C (second compound 0.0316 µM, first compound 1 µM) 77.6% | viability, T/C (second compound 0.1 µM, first compound 0.0316 µM) 51.8% | viability, T/C (second compound 0.1 µM, first compound 0.1 µM) 59.7% | viability, T/C (second compound 0.1 µM, first compound 0.316 µM) 65.7% | viability, T/C (second compound 0.1 µM, first compound 1 µM) 55.8% | viability, T/C (second compound 0.1 µM, first compound 3.16 µM) 8.07% | viability, T/C (second compound 0.1 µM, first compound 10 µM) 12.2% | viability, T/C (second compound 0.316 µM, first compound 0.0316 µM) 56.4% | viability, T/C (second compound 0.316 µM, first compound 0.1 µM) 72.5% | viability, T/C (second compound 0.316 µM, first compound 0.316 µM) 56.3% | viability, T/C (second compound 0.316 µM, first compound 1 µM) 53% | viability, T/C (second compound 0.316 µM, first compound 3.16 µM) 7.76% | viability, T/C (second compound 0.316 µM, first compound 10 µM) 12.5% | viability, T/C (second compound 1 µM, first compound 0.0316 µM) 47.6% | viability, T/C (second compound 1 µM, first compound 0.1 µM) 54.1% | viability, T/C (second compound 1 µM, first compound 0.316 µM) 64% | viability, T/C (second compound 1 µM, first compound 1 µM) 48.1% | viability, T/C (second compound 3.16 µM, first compound 0.0316 µM) 53.8% | viability, T/C (second compound 3.16 µM, first compound 0.1 µM) 61.7% | viability, T/C (second compound 3.16 µM, first compound 0.316 µM) 52.2% | viability, T/C (second compound 3.16 µM, first compound 1 µM) 49.7% | viability, T/C (second compound 10 µM, first compound 0.0316 µM) 46% | viability, T/C (second compound 10 µM, first compound 0.1 µM) 51.2% | viability, T/C (second compound 10 µM, first compound 0.316 µM) 45% | viability, T/C (second compound 10 µM, first compound 1 µM) 33%
31.6 nM: IC50 (second compound 10 µM)
active: viability, T/C (second compound 0.0316 µM, first compound 3.16 µM) 5.12% | viability, T/C (second compound 0.0316 µM, first compound 10 µM) 10.6% | viability, T/C (second compound 1 µM, first compound 3.16 µM) 7.46% | viability, T/C (second compound 1 µM, first compound 10 µM) 10.2% | viability, T/C (second compound 3.16 µM, first compound 3.16 µM) 4.58% | viability, T/C (second compound 3.16 µM, first compound 10 µM) 13.5% | viability, T/C (second compound 10 µM, first compound 3.16 µM) 4.49% | viability, T/C (second compound 10 µM, first compound 10 µM) 9.43%
1370 nM: IC50 (second compound 0.0316 µM)
935 nM: IC50 (second compound 3.16 µM)
1080 nM: IC50 (second compound 0.316 µM)

CCc1c2c(nc3ccc(O)cc13)-c1cc3c(c(=O)n1C2)COC(=O)[C@]3(O)CC + C=CC(=O)N1CCN(c2nc(OCC3CCCN3C)nc3c(F)c(-c4nc(N)cc(C)c4C(F)(F)F)c(Cl)cc23)C(C)C1
2.37 nM: IC50 (second compound 0.01 µM)
2.5 nM: IC50 (second compound 0.1 µM)
2.21 nM: IC50 (second compound 0.316 µM)
2.82 nM: IC50 (second compound 1 µM)
active: viability, T/C (second compound 0.00316 µM, first compound 0.03 µM) 7.87% | viability, T/C (second compound 0.00316 µM, first compound 0.0949 µM) 6.75% | viability, T/C (second compound 0.00316 µM, first compound 0.3 µM) 6.61% | viability, T/C (second compound 0.01 µM, first compound 0.03 µM) 8.97% | viability, T/C (second compound 0.01 µM, first compound 0.0949 µM) 8.82% | viability, T/C (second compound 0.01 µM, first compound 0.3 µM) 4.69% | viability, T/C (second compound 0.0316 µM, first compound 0.03 µM) 11.2% | viability, T/C (second compound 0.0316 µM, first compound 0.0949 µM) 8.98% | viability, T/C (second compound 0.0316 µM, first compound 0.3 µM) 5.11% | viability, T/C (second compound 0.1 µM, first compound 0.03 µM) 9.23% | viability, T/C (second compound 0.1 µM, first compound 0.0949 µM) 6.92% | viability, T/C (second compound 0.1 µM, first compound 0.3 µM) 5.21% | viability, T/C (second compound 0.316 µM, first compound 0.03 µM) 6.67% | viability, T/C (second compound 0.316 µM, first compound 0.0949 µM) 7.68% | viability, T/C (second compound 0.316 µM, first compound 0.3 µM) 4.95% | viability, T/C (second compound 1 µM, first compound 0.03 µM) 9.97% | viability, T/C (second compound 1 µM, first compound 0.0949 µM) 6.39% | viability, T/C (second compound 1 µM, first compound 0.3 µM) 4.12%
3.47 nM: IC50 (second compound 0.0316 µM)
inactive: viability, T/C (second compound 0.00316 µM, first compound 0.000949 µM) 82.8% | viability, T/C (second compound 0.00316 µM, first compound 0.003 µM) 39.5% | viability, T/C (second compound 0.00316 µM, first compound 0.00949 µM) 20.3% | viability, T/C (second compound 0.01 µM, first compound 0.000949 µM) 68.7% | viability, T/C (second compound 0.01 µM, first compound 0.003 µM) 45.3% | viability, T/C (second compound 0.01 µM, first compound 0.00949 µM) 18.4% | viability, T/C (second compound 0.0316 µM, first compound 0.000949 µM) 72.5% | viability, T/C (second compound 0.0316 µM, first compound 0.003 µM) 55.2% | viability, T/C (second compound 0.0316 µM, first compound 0.00949 µM) 13.7% | viability, T/C (second compound 0.1 µM, first compound 0.000949 µM) 63% | viability, T/C (second compound 0.1 µM, first compound 0.003 µM) 47.7% | viability, T/C (second compound 0.1 µM, first compound 0.00949 µM) 15.2% | viability, T/C (second compound 0.316 µM, first compound 0.000949 µM) 83.2% | viability, T/C (second compound 0.316 µM, first compound 0.003 µM) 38% | viability, T/C (second compound 0.316 µM, first compound 0.00949 µM) 13% | viability, T/C (second compound 1 µM, first compound 0.000949 µM) 84.2% | viability, T/C (second compound 1 µM, first compound 0.003 µM) 48.2% | viability, T/C (second compound 1 µM, first compound 0.00949 µM) 13.4%
2.29 nM: IC50 (second compound 0.00316 µM)
